Laboratory results taken from PubChem BioAssay AID1963961 (Molecular Pharmacology Branch, DTP, NCI, 2024).

Tested on: K98450-129-R-PDC multicell spheroids, viability
Test: Anticancer human tumor K98450-129-R-PDC patient-derived colon adenocarcinoma cell line growth inhibition [PI3K]
Conditions: for IC50: curve of first compound; for viability, T/C: stronger effect = lower value
Method in brief: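 High-throughput combination screen: PI3K inhibitors crossed with targeted small molecules on complex spheroids of tumor cells, HUVEC and MSCs at 37 degrees C, 5% CO2. Top concentration was at or near clinical Cmax (otherwise 10 microM), with half-log decrements.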

[1] = second compound 0.0316 µM, first compound 0.0316 µM
[2] = second compound 0.0316 µM, first compound 0.1 µM
[3] = second compound 0.0316 µM, first compound 0.316 µM
[4] = second compound 0.0316 µM, first compound 1 µM
[5] = second compound 0.0316 µM, first compound 3.16 µM
[6] = second compound 0.0316 µM, first compound 10 µM
[7] = second compound 0.1 µM, first compound 0.0316 µM
[8] = second compound 0.1 µM, first compound 0.1 µM
[9] = second compound 0.1 µM, first compound 0.316 µM
[10] = second compound 0.1 µM, first compound 1 µM
[11] = second compound 0.1 µM, first compound 3.16 µM
[12] = second compound 0.1 µM, first compound 10 µM
[13] = second compound 0.316 µM, first compound 0.0316 µM
[14] = second compound 0.316 µM, first compound 0.1 µM
[15] = second compound 0.316 µM, first compound 0.316 µM
[16] = second compound 0.316 µM, first compound 1 µM
[17] = second compound 0.316 µM, first compound 3.16 µM
[18] = second compound 0.316 µM, first compound 10 µM
[19] = second compound 1 µM, first compound 0.0316 µM
[20] = second compound 1 µM, first compound 0.1 µM
[21] = second compound 1 µM, first compound 0.316 µM
[22] = second compound 1 µM, first compound 1 µM
[23] = second compound 1 µM, first compound 3.16 µM
[24] = second compound 1 µM, first compound 10 µM
[25] = second compound 3.16 µM, first compound 0.0316 µM
[26] = second compound 3.16 µM, first compound 0.1 µM
[27] = second compound 3.16 µM, first compound 0.316 µM
[28] = second compound 3.16 µM, first compound 1 µM
[29] = second compound 3.16 µM, first compound 3.16 µM
[30] = second compound 3.16 µM, first compound 10 µM
[31] = second compound 10 µM, first compound 0.0316 µM
[32] = second compound 10 µM, first compound 0.1 µM
[33] = second compound 10 µM, first compound 0.316 µM
[34] = second compound 10 µM, first compound 1 µM
[35] = second compound 10 µM, first compound 3.16 µM
[36] = second compound 10 µM, first compound 10 µM
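Also: spheroids exposed to agents for seven days before read-out.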

CC1(C)CCC(Nc2ncc(C(F)(F)F)c(-c3c[nH]c4c(P(C)(C)=O)c(C#N)ccc34)n2)CN1 (stereo unspecified) + CC(Nc1ncnc2nc[nH]c12)c1cc2cccc(Cl)c2c(=O)n1-c1ccccc1
IC50 (second compound 0.0316 µM): > 10 µM
IC50 (second compound 0.1 µM): 7.06 µM
IC50 (second compound 0.316 µM): > 10 µM
IC50 (second compound 1 µM): 4.51 µM
IC50 (second compound 3.16 µM): 5.35 µM
IC50 (second compound 10 µM): 2.33 µM
viability, T/C [1]: 104%
viability, T/C [2]: 85.5%
viability, T/C [3]: 67.9%
viability, T/C [4]: 67.4%
viability, T/C [5]: 66.2%
viability, T/C [6]: 44.5%
viability, T/C [7]: 139%
viability, T/C [8]: 108%
viability, T/C [9]: 69.2%
viability, T/C [10]: 68.7%
viability, T/C [11]: 78.7%
viability, T/C [12]: 45.2%
viability, T/C [13]: 101%
viability, T/C [14]: 98.4%
viability, T/C [15]: 75.3%
viability, T/C [16]: 58.6%
viability, T/C [17]: 76.8%
viability, T/C [18]: 45%
viability, T/C [19]: 107%
viability, T/C [20]: 93.6%
viability, T/C [21]: 74.7%
viability, T/C [22]: 64.6%
viability, T/C [23]: 62.9%
viability, T/C [24]: 36.9%
viability, T/C [25]: 101%
viability, T/C [26]: 82.4%
viability, T/C [27]: 63.8%
viability, T/C [28]: 70.9%
viability, T/C [29]: 65.1%
viability, T/C [30]: 36.7%
viability, T/C [31]: 94.9%
viability, T/C [32]: 88.5%
viability, T/C [33]: 63.3%
viability, T/C [34]: 62%
viability, T/C [35]: 59.6%
viability, T/C [36]: 21.6%

Cn1ncc(Cl)c1-c1cc(C(=O)NC(CN)Cc2cccc(F)c2)sc1Cl (stereo unspecified) + CC(Nc1ncnc2nc[nH]c12)c1cc2cccc(Cl)c2c(=O)n1-c1ccccc1
IC50 (second compound 0.0316 µM): > 10 µM
IC50 (second compound 0.1 µM): > 10 µM
IC50 (second compound 0.316 µM): > 10 µM
IC50 (second compound 1 µM): > 10 µM
IC50 (second compound 3.16 µM): 9.63 µM
IC50 (second compound 10 µM): 8.5 µM
viability, T/C [1]: 88.4%
viability, T/C [2]: 105%
viability, T/C [3]: 102%
viability, T/C [4]: 93.8%
viability, T/C [5]: 98.1%
viability, T/C [6]: 56.9%
viability, T/C [7]: 107%
viability, T/C [8]: 85%
viability, T/C [9]: 96%
viability, T/C [10]: 92.6%
viability, T/C [11]: 98.1%
viability, T/C [12]: 59.8%
viability, T/C [13]: 110%
viability, T/C [14]: 106%
viability, T/C [15]: 92.4%
viability, T/C [16]: 101%
viability, T/C [17]: 99%
viability, T/C [18]: 61.5%
viability, T/C [19]: 95.7%
viability, T/C [20]: 110%
viability, T/C [21]: 101%
viability, T/C [22]: 80.8%
viability, T/C [23]: 96.6%
viability, T/C [24]: 61.2%
viability, T/C [25]: 87.3%
viability, T/C [26]: 94.5%
viability, T/C [27]: 106%
viability, T/C [28]: 96.9%
viability, T/C [29]: 97%
viability, T/C [30]: 48.4%
viability, T/C [31]: 85.1%
viability, T/C [32]: 86.1%
viability, T/C [33]: 87%
viability, T/C [34]: 94.9%
viability, T/C [35]: 89.8%
viability, T/C [36]: 43.7%

Cn1nccc1Nc1nccc(-c2ccn(C(CO)c3ccc(Cl)c(F)c3)c(=O)c2)n1 (stereo unspecified) + CC(Nc1ncnc2nc[nH]c12)c1cc2cccc(Cl)c2c(=O)n1-c1ccccc1
IC50 (second compound 0.0316 µM): > 10 µM
IC50 (second compound 0.1 µM): > 10 µM
IC50 (second compound 0.316 µM): > 10 µM
IC50 (second compound 1 µM): > 10 µM
IC50 (second compound 3.16 µM): > 10 µM
IC50 (second compound 10 µM): > 10 µM
viability, T/C [1]: 110%
viability, T/C [2]: 102%
viability, T/C [3]: 103%
viability, T/C [4]: 94.5%
viability, T/C [5]: 88.9%
viability, T/C [6]: 85.8%
viability, T/C [7]: 106%
viability, T/C [8]: 100%
viability, T/C [9]: 91.3%
viability, T/C [10]: 93.5%
viability, T/C [11]: 94.6%
viability, T/C [12]: 87%
viability, T/C [13]: 94.5%
viability, T/C [14]: 115%
viability, T/C [15]: 91.6%
viability, T/C [16]: 92.7%
viability, T/C [17]: 96.6%
viability, T/C [18]: 56.8%
viability, T/C [19]: 89.5%
viability, T/C [20]: 103%
viability, T/C [21]: 94.6%
viability, T/C [22]: 85.4%
viability, T/C [23]: 94%
viability, T/C [24]: 81.4%
viability, T/C [25]: 79.2%
viability, T/C [26]: 86.2%
viability, T/C [27]: 95%
viability, T/C [28]: 93.8%
viability, T/C [29]: 106%
viability, T/C [30]: 84.6%
viability, T/C [31]: 90%
viability, T/C [32]: 80%
viability, T/C [33]: 78.9%
viability, T/C [34]: 87.2%
viability, T/C [35]: 80.7%
viability, T/C [36]: 66.3%
